Reference: patent US20240109843A1, “BENZALDEHYDE COMPOUNDS WITH DIRECT POLYMER DESTABILIZING EFFECTS TO TREAT SICKLE CELL DISEASE” (VIRGINIA COMMONWEALTH UNIVERSITY, priority 2018, published 2024)

Legend:
[1] = test system: RBCs from donors with homozygous SCD; test: Oxygen-independent sickle inhibition in SS blood suspensions under anoxia (100% nitrogen); format: cell-based, human; details: anoxia
Method: To establish oxygen-independent sickle inhibition, the incubation chamber was subsequently opened and exposed to room air for 15 minutes to ensure complete re-oxygenation and reversal of the sickled cells to normal round cells. Reversal was confirmed by microscopy. The incubation chamber was then closed, and the assay was repeated with incubation in 100% nitrogen gas for 1 hour (for screening), or up to 2.5 h (for time-course studies), with collection and fixation of blood aliquots at defined intervals. Aliquot samples were again subjected to microscopic morphological analysis of bright field images to identify the proportion of sickled and non-sickled cells, and sickle inhibition calculated.

Hb [2] = target: T1, Hb (Homo sapiens, UniProt P69905); test: Hb modification (drug-adduct formation) in SS blood suspensions by cation-exchange HPLC; format: binding; parameters: Blood suspensions from subjects with homozygous SCD; from tissue; host or cells: blood suspensions (20% hematocrit) from donors with homozygous SCD; lysates of the treated red cells; details: 2 mM, 4 biological replicates
Method: All compounds (Comp 1-13) and comparator molecules (VZHE-039, PP-14, INN-310, and Voxelotor) were evaluated following established procedures. Blood samples from individual donors with homozygous SCD (obtained with informed consent) were diluted using Hemox buffer solution with the addition of glucose (10 mM) and BSA (0.2%) to adjust hematocrit of the blood suspensions to 20%, which standardizes the procedure to normalize the ratio of RBCs to drug, for assay consistency and reproducibility. Briefly, blood suspensions were incubated under room air in the presence of various concentrations of test compounds (0-2 mM) at 37° C. for 1 hour in 96-well round bottom plates. Subsequently, the suspensions were incubated with a hypoxic gas mixture (2.5% Oxygen gas/balance Nitrogen gas) at 37° C. for up to 2 hours prior to fixation with 2% glutaraldehyde solution without exposure to air. The fixated blood aliquots were evaluated by microscopic morphological analysis (image analysis on Image J software) to identify the proportion of sickled and non-sickled RBCs, and sickle inhibition calculated based on the % change from negative control (DMSO).
The residual samples were then washed in phosphate-buffered saline, and hemolyzed in hypotonic lysis buffer, with or without sodium borohydride (50 mM). Aliquots obtained from the lysates with or without sodium borohydride (to reduce Schiff base adducts) were also assessed for level of Hb modification (drug-adduct formation) by cation-exchange HPLC (Hitachi D-7000 Series, Hitachi Instruments, Inc., San Jose, CA) with a weak cation-exchange column (Poly CAT A: 50 mm×4.6 mm, Poly LC, Inc., Columbia, MD). Hemoglobin isotype peaks are eluted with a linear gradient of phase B from 0% to 80% at A410 nm (Mobile Phase A: 40 mM Bis-Tris, 2 mM KCN, pH 6.9; Phase B: 40 mM Bis-Tris, 2 mM KCN, 0.2 M sodium chloride, pH 6.55). Clarified lysate from normal human adult […] (Hb A), as well as commercial standards containing approximately equal amounts of Hb F, A, S and C (Helena Laboratories, Beaumont, TX), were utilized as reference isotypes. Reduced samples were used to assess “fixed adduct” formation (dependent on RBC membrane permeability), whereas non-reduced samples assessed drug-adduct formation independent of drug permeability.
Target sequence in this assay (P69905 2-142): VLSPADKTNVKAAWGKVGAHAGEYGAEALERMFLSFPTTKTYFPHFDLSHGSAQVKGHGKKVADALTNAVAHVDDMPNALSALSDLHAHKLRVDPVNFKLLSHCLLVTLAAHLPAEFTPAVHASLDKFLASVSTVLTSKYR
Target sequence in this assay (P68871 with tags, fused parts or gaps E7V partner): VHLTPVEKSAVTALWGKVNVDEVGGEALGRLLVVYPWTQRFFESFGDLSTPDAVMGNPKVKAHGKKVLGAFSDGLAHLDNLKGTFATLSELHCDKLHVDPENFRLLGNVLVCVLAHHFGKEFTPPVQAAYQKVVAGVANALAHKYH

Hb [3] = target: T1, Hb; test: Drug partitioning studies, fixed and unfixed Hb adducts in non-sickling AA blood; format: cell-based; parameters: Hemoglobin modification, studies using non-sickling AA blood; from tissue; host or cells: non-sickling (AA) human blood, red blood cells; details: 2 mM; for Fixed Adducts (%) / Unfixed Adduct (%): 6 biological replicates; for Partitioning Ratio (%): fixed relative to unfixed adducts
Method: RBC partitioning studies were conducted both for SS RBCs following sickling studies above, or as separate independent studies with non-sickle blood. Briefly, aliquots of blood samples, which had been incubated with test molecules, were lysed either in deionized water (un-fixed), or in water containing 50 mM sodium borohydride (fixed). Samples were subjected to cation exchange HPLC analyses, as described above. Modified […] (Hb adducts) was determined as a proportion of total Hb in each sample, and partitioning ratio was determined as the relative fraction of Hb modification of fixed samples compared to corresponding non-fixed samples. The partitioning ratio is the relative fraction of Hb that was modified intracellularly by molecules that permeated the RBC membrane, as compared to unfixed adducts which reflect Hb binding without RBC membrane permeation.
Target sequence in this assay (P69905 2-142 limits assumed): as the sequence (P69905 2-142) above
Target sequence in this assay (P68871 2-147 partner limits assumed): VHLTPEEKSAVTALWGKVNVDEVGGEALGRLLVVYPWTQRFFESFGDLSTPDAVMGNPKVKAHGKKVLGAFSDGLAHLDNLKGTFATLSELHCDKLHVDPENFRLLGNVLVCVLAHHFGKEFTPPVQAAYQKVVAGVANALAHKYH

Hb [4] = target: T1, Hb; test: Oxygen equilibrium curve (OEC) studies with normal whole blood; format: cell-based; parameters: Hemoglobin modification, studies using non-sickling AA blood; from tissue; host or cells: non-sickling (AA) human blood, red blood cells; details: normal whole blood, 0.5, 1, 2 mM
Method: Oxygen equilibrium curve (OEC) studies to determine the effect of the compounds on Hb affinity for oxygen were conducted following standard procedure. Whole blood (30% hematocrit) was incubated in the absence or presence of compounds (0.5 mM, 1.0 mM and 2.0 mM) solubilized in DMSO. […] After equilibration, the sample was removed via syringe and aspirated into an ABL 700 series table top automated blood gas analyzer (Radiometer America, Inc., Westlake, OH) to determine total hemoglobin (tHb), hematocrit (Hct), pH, pCO2, partial pressure of oxygen (pO2), and the Hb-O2 saturation (sO2) values. The measured values of pO2 and sO2 at each oxygen saturation level were then subjected to nonlinear regression analysis using the software Scientist (Micromath, Salt Lake City UT) with the following equation: […]
Aromatic aldehydes are known to prevent hypoxia-induced Hb S polymerization by increasing the Hb affinity for oxygen. We therefore tested the PP compounds in a dose-dependent manner (0.5, 1, 2 mM) for their effect on Hb oxygen binding property. […] These findings confirmed that the potent in vitro activity previously seen in TD7 was at least conserved in the novel PP compounds.
Target sequence in this assay (P69905 2-142 limits assumed): as the sequence (P69905 2-142) above
Target sequence in this assay (P68871 2-147 partner limits assumed): as the sequence (P68871 2-147 partner limits assumed) above

sickle Hb = target: T2, sickle Hb (Homo sapiens, UniProt P69905); test: Oxygen equilibrium (P50 shift) of lysates from treated sickle blood; format: cell-based; details: 0.5, 1 and 2 mM, SS blood
T2 construct: Blood suspensions from subjects with homozygous SCD; from tissue; host or cells: blood suspensions (20% hematocrit) from donors with homozygous SCD; lysates of the treated red cells
T2 sequence (P69905 2-142 limits assumed): as the sequence (P69905 2-142) above
Method: (§1) Blood suspensions from subjects with homozygous SCD (resuspended in Hemox™ buffer to a final hematocrit 20%) were incubated under air in the absence or presence of the compounds (0.5 mM, 1 mM and 2 mM) at 37° C. for 1 h to ensure that binding had attained equilibrium. The suspensions were then incubated under hypoxic conditions (2.5% oxygen/97.5% nitrogen) at 37° C. for 1 h. Aliquot samples were fixed with 2% glutaraldehyde solution without exposure to air, and then subjected to microscopic morphological analysis of bright field images (at 40× magnification) of single layer cells on an Olympus BX40 microscope fitted with an Infinity Lite B camera (Olympus), and the coupled Image Capture software. The residual samples were washed in phosphate-buffer saline, and hemolyzed in hypotonic lysis buffer for subsequent Hb-modification and oxygen equilibrium analyses.
For oxygen equilibrium studies, approximately 100 μL aliquot samples from the above clarified lysate were added to 4 mL of 0.1M potassium phosphate buffer, pH 7.0, in cuvettes and subjected to hemoximetry analysis using a Hemox™ Analyzer (TCS Scientific Corp.) to assess P50 shifts. Degree of P50 shift (ΔP50) was expressed as percentage fractions of control DMSO-treated samples.

sickle red blood cells = test: Antisickling study with human sickle blood under 2.5% oxygen; format: cell-based; details: Homo sapiens, Erythrocyte, sickle RBCs, 2.5% oxygen, read-out: sickling inhibition; for inhibition at 500 µM: 0.5 mM; for inhibition at 1000 µM: 1 mM
Method: as §1
The studies described above were conducted using normal whole blood. Next, we investigated whether the improvement in Hb oxygen affinity and the compounds sustained activity also translated to similar effects in SS blood from SCD patients. […] At 1 mM, PP8 and PP9 inhibited nearly 100% of sickling, while PP2, PP6, PP14 inhibited sickling by more than 70%. […] It is clear that the modifications of the present compounds has led to significant improvement in antisickling activity.

intracellular Hb = target: T3, intracellular Hb (Mus musculus, UniProt P01942); test: In vivo modification of intracellular Hb in wild-type mice; parameters: species or system C57BL/6 mice; details: IP 150 mg/kg, 30% PEG300, 6 h
T3 construct: from tissue; host or cells: blood (red cell lysates) of dosed C57BL/6 mice
T3 sequence (P01942 2-142 limits assumed): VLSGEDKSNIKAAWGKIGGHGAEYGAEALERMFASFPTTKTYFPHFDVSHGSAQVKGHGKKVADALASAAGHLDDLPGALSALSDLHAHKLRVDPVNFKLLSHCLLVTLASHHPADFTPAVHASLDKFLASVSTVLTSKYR
T3 sequence (P02088 2-147 partner limits assumed): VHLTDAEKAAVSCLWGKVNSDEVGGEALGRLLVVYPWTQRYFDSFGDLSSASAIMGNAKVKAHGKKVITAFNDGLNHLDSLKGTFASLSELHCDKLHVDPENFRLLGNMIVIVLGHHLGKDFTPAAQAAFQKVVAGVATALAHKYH
Method: We tested in vivo pharmacologic (pharmacodynamics) effects of select PP compounds in C57BL/6 mice. The animals were treated with a single intraperitoneal (IP) (150 mg/kg body weight) dose of PP6, PP10, PP14, and TD7, which were formulated with 30% PEG300. Blood samples were obtained prior to treatment (0) and 1, 3 and 6 h post-treatment, via submandibular bleeding, and subjected to hemolysis using standard methods. Clarified lysates, free of cell debris and red blood cell ghosts were analyzed by cation-exchange HPLC to determine the levels of drug-modified hemoglobin (adducts); and to conduct oxygen equilibrium studies to determine degrees of shift in p50 values using methodologies described earlier for in vitro studies on human samples. In a subsequent follow-up experiment, a new excipient obtained from Catalent Pharma Solutions was also used to formulate PP14 and used for a single intraperitoneal (IP) and oral (150 mg/kg body weight) dose. Blood samples were obtained prior to treatment (0) and 1, 3 or 5 h post-treatment, via submandibular bleeding, and used to determine the levels of drug-modified hemoglobin (adducts); and to conduct oxygen equilibrium studies to determine degrees of shift in p50 values as described above.

Row | Hb Modification (%) (Hb [2]) | Fixed Adducts (%) (Hb [3]) | Unfixed Adduct (%) (Hb [3]) | Partitioning Ratio (%) (Hb [3]) | effect on Hb oxygen binding property (OEC) (Hb [4]) | modified Hb (intracellular Hb) | SMILES | polymer destabilizing effect / sickle inhibition in anoxia (in words) [1] | increase of Hb affinity for oxygen in sickle blood (in words) (sickle Hb) | inhibition at 500 µM (sickle red blood cells) | inhibition at 1000 µM (sickle red blood cells)
1 | 99.8 ± 0.4% | 80.4 ± 9.1% | 80.8 ± 5.9% | 99.4 ± 4.2% |  |  | O=Cc1c(OCc2cccnc2)ccc(F)c1O [Comp 12, 3-fluoro-2-hydroxy-6-(pyridin-3-ylmethoxy)benzaldehyde] | significantly reduced the potency of polymer inhibition |  |  | 
2 | 79.1 ± 10.3% | 80.7 ± 4.8% | 78.4 ± 6.1% | 103.0 ± 2.9% |  |  | O=Cc1c(F)cc(F)cc1OCc1ncccc1F [Comp 13, 2,4-difluoro-6-((3-fluoropyridin-2-yl)methoxy)benzaldehyde] | completely negates the polymer destabilization effects |  |  | 
3 | 65.7 ± 6.0% | 82.0 ± 3.1% | 79.7 ± 4.3% | 103.0 ± 1.7% |  |  | COc1ccc(OCc2ccccn2)c(C=O)c1 [INN-310, reference compound] | only weak potency in anoxia |  |  | 
4 |  |  |  |  | most significant activities |  | COC(=O)c1cccnc1COc1ccc(OC)cc1C=O [PP2, Methyl 2-((2-formyl-4-methoxyphenoxy)methyl)nicotinate] |  | only marginally increasing Hb affinity for oxygen | > 35% | > 70%
5 |  |  |  |  |  |  | COC(=O)c1cccc(COc2ccc(OC)cc2C=O)n1 [PP3, Methyl 6-((2-formyl-4-methoxyphenoxy)methyl)picolinate] |  | only marginally increasing Hb affinity for oxygen |  | 
6 |  |  |  |  | most significant activities | 16.9±1.4% | COC(=O)c1cccnc1COc1cccc(O)c1C=O [PP6, Methyl 2-((2-formyl-3-hydroxyphenoxy)methyl)nicotinate] |  | only marginally increasing Hb affinity for oxygen | > 35% | > 70%
7 |  |  |  |  |  |  | COC(=O)c1ncccc1COc1ccc(OC)cc1C=O [PP8, Methyl 3-((2-formyl-4-methoxyphenoxy)methyl)picolinate] |  | only marginally increasing Hb affinity for oxygen | > 35% | ~100%
8 |  |  |  |  | most significant activities |  | COC(=O)c1ccc(COc2ccc(OC)cc2C=O)nc1 [PP9] |  | only marginally increasing Hb affinity for oxygen |  | ~100%
